Laboratory results from the NIST ThermoML archive (doi:10.1021/je700363m).
Numbers after ± are expanded uncertainties.

Assay: wn = mass fraction of the nth substance listed
Settings: 101 kPa, Liquid; for viscosity: Capillary tube (Ostwald / Ubbelohde) method

[K+].[K+].[O]=[Cr](=[O])([O-])[O-] [potassium chromate(VI)] + O
viscosity (298.15 K, w1 = 0.0931): 0.9285 ± 0.0077 mPa·s
mass density (298.15 K, w1 = 0.049): 1034.6 ± 1 kg/m3
mass density (298.15 K, w1 = 0.0538): 1038.3 ± 1 kg/m3
mass density (298.15 K, w1 = 0.0653): 1046.8 ± 1 kg/m3
viscosity (313.15 K, w1 = 0.0931): 0.7309 ± 0.0062 mPa·s

[K+].[K+].[O]=[Cr](=[O])([O-])[O][Cr](=[O])(=[O])[O-] [potassium dichromate] + O
viscosity (313.15 K, w1 = 0.0478): 0.6465 ± 0.0055 mPa·s
viscosity (313.15 K, w1 = 0.0906): 0.6805 ± 0.0058 mPa·s
mass density (313.15 K, w1 = 0.02): 1006.5 ± 1.1 kg/m3
mass density (313.15 K, w1 = 0.05): 1026.8 ± 1.2 kg/m3
viscosity (319.15 K, w1 = 0.155): 0.6914 ± 0.0059 mPa·s
mass density (319.15 K, w1 = 0.155): 1166.5 ± 1.4 kg/m3
viscosity (323.25 K, w1 = 0.172): 0.6658 ± 0.0057 mPa·s
mass density (323.25 K, w1 = 0.172): 1184.2 ± 1.5 kg/m3
mass density (333.15 K, w1 = 0.02): 997 ± 1.3 kg/m3
mass density (333.15 K, w1 = 0.05): 1016.4 ± 1.3 kg/m3
mass density (333.32 K, w1 = 0.214): 1232.1 ± 1.6 kg/m3
viscosity (333.35 K, w1 = 0.214): 0.6307 ± 0.0054 mPa·s
